Data as given in patent US20250179028A1, “ACRYLAMIDE COMPOUNDS” (NRG THERAPEUTICS LTD, priority 2022, published 2025).
Converted amounts (≈) assume the structure as drawn. Read-outs that look alike come from different tables or passages of the source. Marks after values point to notes of the source that are not given here.

Columns and labels:
mPTP = mPTP activity (Ca2+ retention) assay in isolated rat liver mitochondria; format: biochemical; details: isolated rat liver mitochondria
In short: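 Freshly isolated female Sprague Dawley rat liver mitochondria were energised with succinate and rotenone in pH 7.4 buffer with Fluo5N, then pre-incubated 10 min at RT with compound (30 μM to 1 nM final) before a 75 μM CaCl2 bolus. The IC50 used 10-min fluorescence, normalised to DMSO and 5 μM cyclosporin A.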

[1] = PBS and FaSSIF solubility; format: physicochemical; details: kinetic from dmso stock
In short: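 Solubility was measured from 10 mM DMSO stocks diluted into FaSSIF or PBS pH 7.4, in duplicate, then shaken at 1100 rpm for 2 hr at 25 °C. Filtrates were quantified by LC-MS/MS against an internal standard and a known-concentration standard.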

[2] = Hepatocyte clearance assay, rat; format: in vitro ADME; details: cryopreserved primary rat hepatocytes, average value from two experiments, read-out: Rat heps Clint
In short: (§1)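 Cryopreserved rat or human hepatocytes, 0.5×10^6 viable cells/mL in L-15 medium, incubated with compound at 37 °C; samples to 120 min, duplicate. Parent loss by LC/MS/MS; t½ = 0.693/k from ln-linear regression, converted to CLint in μL/min/1×10^6 cells.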

[3] = Hepatocyte clearance assay, human; format: in vitro ADME; details: cryopreserved primary human hepatocytes, average value from two experiments, read-out: Human heps Clint
In short: as §1

[4] = average value from multiple experiments (n ≥ 2)
[5] = fasted state simulated intestinal fluid (FaSSIF), fassif, Fasted state simulated intestinal fluid, 2 hr at 25° C., read-out: Solubility FaSSIF
[6] = aqueous buffer, PBS pH 7.4, 2 hr at 25° C., read-out: Solubility PBS (pH 7.4)

| mPTP Rat liver pIC50 (mPTP; [4]) | solubility at 2 h [1, 5] [µM] | hepatocyte CLint at 1 µM [2] [µL/min/1e6 cells] | hepatocyte CLint at 1 µM [3] [µL/min/1e6 cells] | solubility at 2 h [1, 6] [µM] | mPTP Rat liver pIC50 (mPTP; average value from a larger number of experiments) | SMILES |
| --- | --- | --- | --- | --- | --- | --- |
| 7.6 | 22 (≈ 7.63 µg/mL) | 39.4 | 10.8 | – | – | CO[C@H]1Cc2ccccc2[C@@H]1NC(=O)/C=C/c1ccc2c(C)n[nH]c2c1 [Example 54, (E)-N-((1S,2S)-2-methoxy-2,3-dihydro-1H-inden-1-yl)-3-(3-methyl-1H-indazol-6-yl)acrylamide] |
| 6.7 | 66 (≈ 21.7 µg/mL) | 27 | – | 6.78 (≈ 2.23 µg/mL) | – | Cc1c(F)cccc1NC(=O)/C=C/c1ccc2c(c1F)NC(=O)C2 [Example 5, (E)-N-(3-fluoro-2-methylphenyl)-3-(7-fluoro-2-oxoindolin-6-yl)acrylamide] |
| 5.9 | 220 (≈ 71.3 µg/mL) | 46 | – | 33.6 (≈ 10.9 µg/mL) | – | Cc1c(F)cccc1NC(=O)/C=C/c1ccc2c(c1)NC(=O)C2C (centres unmarked) [Example 8, (E)-N-(3-fluoro-2-methylphenyl)-3-(3-methyl-2-oxoindolin-6-yl)acrylamide] |
| 6.6 | – | 35.7 | 17.4 | 6.13 (≈ 2.15 µg/mL) | – | Cc1c(F)cccc1NC(=O)/C=C/c1ccc2c(c1)[nH]c(=O)n2C1CC1 [Example 23, (E)-3-(1-cyclopropyl-2-oxo-2,3-dihydro-1H-benzo[d]imidazol-5-yl)-N-(3-fluoro-2-methylphenyl)acrylamide] |
| 7.4 | 135 (≈ 46 µg/mL) | 12.1 | 18.1 | 5.73 (≈ 1.94 µg/mL) | – | Cc1ccc(F)c(C)c1NC(=O)/C=C/c1ccc2c(c1)[nH]c(=O)n2C [Example 30, (E)-N-(3-fluoro-2,6-dimethylphenyl)-3-(1-methyl-2-oxo-2,3-dihydro-1H-benzo[d]imidazol-5-yl)acrylamide] |
| 6.9 | – | 36.3 | 21.8 | 3.69 (≈ 1.17 µg/mL) | – | Cc1n[nH]c2cc(/C=C/C(=O)NC3CCc4ccccc43)ccc12 (centres unmarked) [Example 25, (E)-N-(2,3-dihydro-1H-inden-1-yl)-3-(3-methyl-1H-indazol-6-yl)acrylamide] |
| 6.7 | 74 (≈ 23 µg/mL) | 21.1 | 3.3 | 4.7 (≈ 1.46 µg/mL) | – | Cc1c(F)cccc1NC(=O)/C=C/c1ccc2c(c1)NC(=O)C2 [Example 10, (E)-N-(3-fluoro-2-methylphenyl)-3-(2-oxoindolin-6-yl)acrylamide] |
| 8.0 | 4 (≈ 1.18 µg/mL) | 89 | 13 | 0.9 (≈ 0.266 µg/mL) | 7.8*** | Cc1c(F)cccc1NC(=O)/C=C/c1ccc2cn[nH]c2c1 [Comparative Example 1, (E)-N-(2-methyl-3-fluorophenyl)-3-(1H-indazol-6-yl)acrylamide, reference compound] |
| 6.6 | – | 26.1 | 16.2 | 0.4 (≈ 0.136 µg/mL) | – | CCn1c(=O)[nH]c2cc(/C=C/C(=O)Nc3cccc(F)c3C)ccc21 [Example 22, (E)-3-(1-ethyl-2-oxo-2,3-dihydro-1H-benzo[d]imidazol-5-yl)-N-(3-fluoro-2-methylphenyl)acrylamide] |
| 6.8 | 22.5 (≈ 7.32 µg/mL) | 27 | 7.63 | 1.4 (≈ 0.455 µg/mL) | – | Cc1c(F)cccc1NC(=O)/C=C/c1ccc2c(c1)[nH]c(=O)n2C [Example 7, (E)-N-(3-fluoro-2-methylphenyl)-3-(1-methyl-2-oxo-2,3-dihydro-1H-benzo[d]imidazol-5-yl)acrylamide] |
| 6.8 | 16 (≈ 5 µg/mL) | 53.3 | < 3 | 3.71 (≈ 1.16 µg/mL) | – | Cc1c(F)cccc1NC(=O)/C=C/c1ccc2oc(=O)[nH]c2c1 [Example 6, (E)-N-(3-fluoro-2-methylphenyl)-3-(2-oxo-2,3-dihydrobenzo[d]oxazol-5-yl)acrylamide] |
| 5.9 | – | – | 4.78 | 0.5 (≈ 0.164 µg/mL) | – | Cc1c(F)cccc1NC(=O)/C(F)=C/c1ccc2c(c1)NC(=O)C2 [Example 47, (Z)-2-fluoro-N-(3-fluoro-2-methylphenyl)-3-(2-oxoindolin-6-yl)acrylamide] |

| SMILES | mPTP Rat liver pIC50 (mPTP; [4]) | solubility at 2 h [1, 5] [µM] | hepatocyte CLint at 1 µM [2] [µL/min/1e6 cells] | hepatocyte CLint at 1 µM [3] [µL/min/1e6 cells] | solubility at 2 h [1, 6] [µM] | mPTP Rat liver pIC50 (mPTP; average value from a larger number of experiments) |
| --- | --- | --- | --- | --- | --- | --- |
| Cc1cccc(C)c1NC(=O)/C=C/c1ccc2c(c1)NC(=O)C2 [Example 19, (E)-N-(2,6-dimethylphenyl)-3-(2-oxoindolin-6-yl)acrylamide] | 6.2 | 196 (≈ 60.2 µg/mL) | 9.1 | 4.02 | 134 (≈ 41.1 µg/mL) | – |
| CO[C@H]1Cc2ccccc2[C@@H]1NC(=O)/C=C/c1ccc2c(F)n[nH]c2c1 [Example 73, (E)-3-(3-fluoro-1H-indazol-6-yl)-N-((1S,2S)-2-methoxy-2,3-dihydro-1H-Inden-1-yl)acrylamide] | 8.1 | 37.5 (≈ 13.2 µg/mL) | 73.5 | 7.7 | – | – |
